Measured values taken from patent US11434242B2, “Dopamine-b-hydroxylase inhibitors” (BIAL-PORTELA & Cª, S.A., priority 2017, dated 2022).
Marks after values point to notes of the source that are not given here.

Target: T1, Dopamine beta hydroxylase (Homo sapiens, UniProt P09172)
T1 construct: 125 μl of plasma; tissue Instituto Português do Sangue Transplantação; host or cells: human plasma from healthy donors
T1 sequence (P09172 40-617 limits assumed): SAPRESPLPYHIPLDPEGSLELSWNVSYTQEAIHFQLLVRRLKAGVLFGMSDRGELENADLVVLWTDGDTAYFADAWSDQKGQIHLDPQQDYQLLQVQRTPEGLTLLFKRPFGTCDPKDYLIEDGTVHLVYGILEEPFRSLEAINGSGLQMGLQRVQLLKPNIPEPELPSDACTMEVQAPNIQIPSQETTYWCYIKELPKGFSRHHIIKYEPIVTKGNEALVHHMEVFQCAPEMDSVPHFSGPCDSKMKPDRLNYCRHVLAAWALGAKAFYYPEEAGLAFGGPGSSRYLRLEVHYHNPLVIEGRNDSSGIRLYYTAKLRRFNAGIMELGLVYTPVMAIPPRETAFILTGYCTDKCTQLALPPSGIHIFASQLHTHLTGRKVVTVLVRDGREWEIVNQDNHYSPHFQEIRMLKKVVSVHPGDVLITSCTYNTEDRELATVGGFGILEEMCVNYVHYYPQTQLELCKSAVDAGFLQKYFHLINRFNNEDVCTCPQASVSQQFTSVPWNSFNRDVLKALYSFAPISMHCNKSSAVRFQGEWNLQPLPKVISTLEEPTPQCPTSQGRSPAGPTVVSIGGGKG
Assay: Dopamine beta hydroxylase activity in human plasma
Assay type: biochemical
Details: for Plasma (0.01 μM), activity in % of control / Plasma (0.01 μM), activity in % of control, re-test (asterisked): inhibitor 0.01 μM; for Plasma (0.1 μM), activity in % of control / Plasma (0.1 μM), activity in % of control, re-test (asterisked): inhibitor 0.1 μM; for Plasma (0.01 μM), activity in % of control, re-test (asterisked) / Plasma (0.1 μM), activity in % of control, re-test (asterisked): re-tested under the same experimental conditions, asterisked data believed to be correct
Outline: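 Octopamine production from tyramine over 45 min at 37° C, measured photometrically at 330 nm after SCX extraction and periodate oxidation against an octopamine standard curve, indicates plasma DβH activity. Compounds tested at final 10, 100 and 1000 nM in human plasma, pH 5.0 cofactor buffer, 10 min preincubation; results as % of control.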

O=C(NCc1[nH]c(=S)n2c1C[C@@H](c1c(F)ccc(Cl)c1F)C2)c1cccnc1 [Example 223, (S)—N-((6-(3-chloro-2,6-difluorophenyl)-3-thioxo-2,5,6,7-tetrahydro-3H-pyrrolo[1,2-c]imidazol-1-yl)methyl)nicotinamide]
Plasma (0.01 μM), activity in % of control: 42.7 % of control
Plasma (0.1 μM), activity in % of control: 7.2 % of control

N#CN/C(N)=N/Cc1[nH]c(=S)n2c1C[C@@H](c1c(F)ccc(Br)c1F)C2 [Example 224, 2-{[(6S)-6-(3-bromo-2,6-difluorophenyl)-3-thioxo-2,5,6,7-tetrahydro-3H-pyrrolo[1,2-c]imidazol-1-yl]methyl}-1-cyanoguanidine]
Plasma (0.01 μM), activity in % of control: 22.6 % of control
Plasma (0.1 μM), activity in % of control: 0.6 % of control

N#C/N=C(/NCc1[nH]c(=S)n2c1C[C@@H](c1c(F)ccc(Br)c1F)C2)N1CCCC1 [Example 225, (S,Z)—N-((6-(3-bromo-2,6-difluorophenyl)-3-thioxo-2,5,6,7-tetrahydro-3H-pyrrolo[1,2-c]imidazol-1-yl)methyl)-N′-cyanopyrrolidine-1-carboximidamide]
Plasma (0.01 μM), activity in % of control: 65.3 % of control
Plasma (0.1 μM), activity in % of control: 12.5 % of control

CN(CCc1[nH]c(=S)n2c1C[C@@H](c1c(F)ccc(Cl)c1F)C2)C(=O)c1cccnc1 [Example 226, (S)—N-(2-(6-(3-chloro-2,6-difluorophenyl)-3-thioxo-2,5,6,7-tetrahydro-3H-pyrrolo[1,2-c]imidazol-1-yl)ethyl)-N-methylnicotinamide]
Plasma (0.01 μM), activity in % of control: 100.8 % of control
Plasma (0.1 μM), activity in % of control: 47.4 % of control

CN(CCc1[nH]c(=S)n2c1C[C@@H](c1c(F)ccc(Cl)c1F)C2)C(=O)N1CCCC1 [Example 227, (S)—N-(2-(6-(3-chloro-2,6-difluorophenyl)-3-thioxo-2,5,6,7-tetrahydro-3H-pyrrolo[1,2-c]imidazol-1-yl)ethyl)-N-methylpyrrolidine-1-carboxamide]
Plasma (0.01 μM), activity in % of control: 86.8 % of control
Plasma (0.1 μM), activity in % of control: 54.9 % of control

Cc1noc(Cc2[nH]c(=S)n3c2C[C@@H](c2c(F)ccc(Cl)c2F)C3)n1 [Example 228, (S)-6-(3-chloro-2,6-difluorophenyl)-1-((3-methyl-1,2,4-oxadiazol-5-yl)methyl)-6,7-dihydro-2H-pyrrolo[1,2-c]imidazole-3(5H)-thione]
Plasma (0.01 μM), activity in % of control: 90.2 % of control
Plasma (0.1 μM), activity in % of control: 56.0 % of control

Cn1c(CC(=O)O)c2n(c1=S)C[C@@H](c1c(F)c(F)cc(F)c1F)C2 [Example 229, (R)-2-(2-methyl-6-(2,3,5,6-tetrafluorophenyl)-3-thioxo-3,5,6,7-tetrahydro-2H-pyrrolo[1,2-c]imidazol-1-yl)acetic Acid]
Plasma (0.01 μM), activity in % of control: 84.3 % of control
Plasma (0.1 μM), activity in % of control: 38.3 % of control

Cn1c(CC(=O)O)c2n(c1=S)C[C@H](c1cc(Cl)ccc1F)C2 [Example 230, (S)-2-(6-(5-chloro-2-fluorophenyl)-2-methyl-3-thioxo-2,5,6,7-tetrahydro-3H-pyrrolo[1,2-c]imidazol-1-yl)acetic acid]
Plasma (0.01 μM), activity in % of control: 82.0 % of control
Plasma (0.1 μM), activity in % of control: 41.6 % of control

Cn1c(CC(=O)N2CCOCC2)c2n(c1=S)C[C@H](c1c(F)ccc(Br)c1F)C2 [Example 233, (S)-2-(6-(3-bromo-2,6-difluorophenyl)-2-methyl-3-thioxo-2,5,6,7-tetrahydro-3H-pyrrolo[1,2-c]imidazol-1-yl)-1-morpholinoethan-1-one]
Plasma (0.01 μM), activity in % of control: 83.8 % of control
Plasma (0.01 μM), activity in % of control, re-test (asterisked): 59.3* % of control
Plasma (0.1 μM), activity in % of control: 66.8 % of control
Plasma (0.1 μM), activity in % of control, re-test (asterisked): 9.7* % of control

Cn1c(C2(C(=O)N[C@@H]3CCOC3)CC2)c2n(c1=S)C[C@H](c1c(F)ccc(Br)c1F)C2 [Example 234, 1-((S)-6-(3-bromo-2,6-difluorophenyl)-2-methyl-3-thioxo-2,5,6,7-tetrahydro-3H-pyrrolo[1,2-c]imidazol-1-yl)-N—((R)-tetrahydrofuran-3-yl)cyclopropane-1-carboxamide]
Plasma (0.01 μM), activity in % of control: 43.4 % of control
Plasma (0.1 μM), activity in % of control: 12.2 % of control

Cn1c(CC(=O)N2CCS(=O)(=O)CC2)c2n(c1=S)C[C@H](c1c(F)ccc(Br)c1F)C2 [Example 235, (S)-2-(6-(3-bromo-2,6-difluorophenyl)-2-methyl-3-thioxo-2,5,6,7-tetrahydro-3H-pyrrolo[1,2-c]imidazol-1-yl)-1-(1,1-dioxidothiomorpholino)ethan-1-one]
Plasma (0.01 μM), activity in % of control: 11.4 % of control
Plasma (0.1 μM), activity in % of control: 1.2 % of control

CC(C)NC(=O)Cc1c2n(c(=S)n1C)C[C@H](c1c(F)ccc(Cl)c1F)C2 [Example 236, (S)-2-(6-(3-chloro-2,6-difluorophenyl)-2-methyl-3-thioxo-2,5,6,7-tetrahydro-3H-pyrrolo[1,2-c]imidazol-1-yl)-N-isopropylacetamide]
Plasma (0.01 μM), activity in % of control: 104.2 % of control
Plasma (0.1 μM), activity in % of control: 51.0 % of control

Cn1c(CC(=O)N2CCOCC2)c2n(c1=S)C[C@@H](c1c(F)ccc(F)c1F)C2 [Example 237, (R)-2-(2-methyl-3-thioxo-6-(2,3,6-trifluorophenyl)-2,5,6,7-tetrahydro-3H-pyrrolo[1,2-c]imidazol-1-yl)-1-morpholinoethan-1-one]
Plasma (0.01 μM), activity in % of control: 92.9 % of control
Plasma (0.1 μM), activity in % of control: 61.6 % of control

Cn1c(C2(C(=O)NCCS(C)(=O)=O)CC2)c2n(c1=S)C[C@H](c1c(F)ccc(Br)c1F)C2 [Example 238, (S)-1-(6-(3-bromo-2,6-difluorophenyl)-2-methyl-3-thioxo-2,5,6,7-tetrahydro-3H-pyrrolo[1,2-c]imidazol-1-yl)-N-(2-(methylsulfonyl)ethyl)cyclopropane-1-carboxamide]
Plasma (0.01 μM), activity in % of control: 93.4 % of control
Plasma (0.1 μM), activity in % of control: 88.5 % of control

Cn1c(CC(=O)NC2CCS(=O)(=O)CC2)c2n(c1=S)C[C@@H](c1c(F)ccc(F)c1F)C2 [Example 239, (R)—N-(1,1-dioxidotetrahydro-2H-thiopyran-4-yl)-2-(2-methyl-3-thioxo-6-(2,3,6-trifluorophenyl)-2,5,6,7-tetrahydro-3H-pyrrolo[1,2-c]imidazol-1-yl)acetamide]
Plasma (0.01 μM), activity in % of control: 60.1 % of control
Plasma (0.1 μM), activity in % of control: 3.9 % of control

Cn1c(CC(N)=O)c2n(c1=S)C[C@H](c1c(F)ccc(Br)c1F)C2 [Example 240, (S)-2-(6-(3-bromo-2,6-difluorophenyl)-2-methyl-3-thioxo-2,5,6,7-tetrahydro-3H-pyrrolo[1,2-c]imidazol-1-yl)acetamide]
Plasma (0.01 μM), activity in % of control: 76.1 % of control
Plasma (0.1 μM), activity in % of control: 39.2 % of control

Cn1c(CC(=O)N2CCC[C@H]2CO)c2n(c1=S)C[C@H](c1c(F)ccc(Br)c1F)C2 [Example 241, 2-((S)-6-(3-bromo-2,6-difluorophenyl)-2-methyl-3-thioxo-2,5,6,7-tetrahydro-3H-pyrrolo[1,2-c]imidazol-1-yl)-1-((S)-2-(hydroxymethyl)pyrrolidin-1-yl)ethan-1-one]
Plasma (0.01 μM), activity in % of control: 51.7 % of control
Plasma (0.1 μM), activity in % of control: 8.9 % of control

Cn1c(CC(=O)N2CCOCC2)c2n(c1=S)C[C@@H](c1c(F)c(F)cc(F)c1F)C2 [Example 242, (R)-2-(2-methyl-6-(2,3,5,6-tetrafluorophenyl)-3-thioxo-2,5,6,7-tetrahydro-3H-pyrrolo[1,2-c]imidazol-1-yl)-1-morpholinoethan-1-one]
Plasma (0.01 μM), activity in % of control: 91.5 % of control
Plasma (0.1 μM), activity in % of control: 53.6 % of control

Cn1c(CC(=O)N[C@@H]2CCOC2)c2n(c1=S)C[C@@H](c1c(F)c(F)cc(F)c1F)C2 [Example 243]
Plasma (0.01 μM), activity in % of control: 38.0 % of control
Plasma (0.01 μM), activity in % of control, re-test (asterisked): 87.3* % of control
Plasma (0.1 μM), activity in % of control: 4.4 % of control
Plasma (0.1 μM), activity in % of control, re-test (asterisked): 37.6* % of control

Cn1c(CC(=O)N[C@@H]2CCOC2)c2n(c1=S)C[C@@H](c1c(F)ccc(F)c1F)C2 [Example 244, 2-((R)-2-methyl-3-thioxo-6-(2,3,6-trifluorophenyl)-2,5,6,7-tetrahydro-3H-pyrrolo[1,2-c]imidazol-1-yl)-N—((R)-tetrahydrofuran-3-yl)acetamide]
Plasma (0.01 μM), activity in % of control: 83.6 % of control
Plasma (0.1 μM), activity in % of control: 32.9 % of control

Cn1c(CC(=O)NC2CCCC2)c2n(c1=S)C[C@@H](c1cc(Cl)ccc1F)C2 [Example 245, (R)-2-(6-(5-chloro-2-fluorophenyl)-2-methyl-3-thioxo-2,5,6,7-tetrahydro-3H-pyrrolo[1,2-c]imidazol-1-yl)-N-cyclopentylacetamide]
Plasma (0.01 μM), activity in % of control: 107.8 % of control
Plasma (0.1 μM), activity in % of control: 93 % of control
